Tests used:
Experiment in all cases: relative viability (nuclei count vs DMSO), 5 days (fraction); higher = more cells survive
Entinostat + Olaparib = compound: Nc1ccccc1NC(=O)c1ccc(CNC(=O)OCc2cccnc2)cc1 [Entinostat] + O=C(c1cc(Cc2n[nH]c(=O)c3ccccc23)ccc1F)N1CCN(C(=O)C2CC2)CC1 [Olaparib] (partner 8 µM)
Procedure, shortened: (§1)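 Lung cancer cell lines, seeded in 1536-well plates, were treated the following day by pin tool with a single drug or with five library-drug doses (not always all listed) in √10 steps on top of a fixed anchor-drug dose. Cells were fixed and nuclei stained in one step after 5 days, and nuclei were counted. Relative viability is the nuclei count for treated wells divided by that for vehicle wells, reported as medians of duplicate plates.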

[1] = compound: C1COCCN1C2=NC(=NC3=C2OC4=C3C=CC=N4)C5=CC(=CC=C5)NC(=O)C6=CN=C(C=C6)N + O=C(CCCCCCC(=O)Nc1ccccc1)NO [Vorinostat] (partner 1 µM)
Procedure, shortened: as §1

Entinostat + Navitoclax = compound: Nc1ccccc1NC(=O)c1ccc(CNC(=O)OCc2cccnc2)cc1 [Entinostat] + CC1(C)CCC(c2ccc(Cl)cc2)=C(CN2CCN(c3ccc(C(=O)NS(=O)(=O)c4ccc(N[C@H](CCN5CCOCC5)CSc5ccccc5)c(S(=O)(=O)C(F)(F)F)c4)cc3)CC2)C1 [Navitoclax] (partner 0.5 µM)
Procedure, shortened: as §1

[2] = compound: C1COCCN1C2=NC(=NC3=C2OC4=C3C=CC=N4)C5=CC(=CC=C5)NC(=O)C6=CN=C(C=C6)N + C[C@@H](Oc1cc(-c2cnn(C3CCNCC3)c2)cnc1N)c1c(Cl)ccc(F)c1Cl [Crizotinib] (partner 1 µM)
Procedure, shortened: as §1

Cell Line	relative viability (Entinostat + Olaparib; first compound 0.02 µM)	relative viability (Entinostat + Olaparib; first compound 0.06325 µM)	relative viability (Entinostat + Olaparib; first compound 0.2 µM)	relative viability (Entinostat + Olaparib; first compound 0.6325 µM)	relative viability (Entinostat + Olaparib; first compound 2 µM)	relative viability ([1]; first compound 0.02 µM)	relative viability ([1]; first compound 0.06325 µM)	relative viability ([1]; first compound 0.2 µM)	relative viability ([1]; first compound 0.6325 µM)	relative viability ([1]; first compound 2 µM)	relative viability (Entinostat + Navitoclax; first compound 0.02 µM)	relative viability (Entinostat + Navitoclax; first compound 0.06325 µM)	relative viability (Entinostat + Navitoclax; first compound 0.2 µM)	relative viability (Entinostat + Navitoclax; first compound 0.6325 µM)	relative viability (Entinostat + Navitoclax; first compound 2 µM)	relative viability ([2]; first compound 0.02 µM)	relative viability ([2]; first compound 0.06325 µM)	relative viability ([2]; first compound 0.2 µM)	relative viability ([2]; first compound 0.6325 µM)	relative viability ([2]; first compound 2 µM)
NCI-H2170	0.565	0.557	0.515	0.341	0.215	0.93	0.997	0.643	0.729	0.518	0.626	0.553	0.502	0.33	0.196	1.31	1.37	1.25	1.12	0.668
NCI-H322M	0.722	0.952	0.887	0.815	0.618	0.823	0.85	0.851	0.904	0.764	1.3	1.17	1.27	1.27	0.845	0.854	0.991	0.879	0.934	0.657
PC-3 [JPC-3]	1.14	1.12	1.04	0.663	0.456	0.729	0.678		0.662	0.638	0.786	0.846	0.777	0.522	0.423	0.961	1.02	1.02	1.04	0.64
EPLC-272H	0.726	0.614	0.875	0.273	0.191	0.339	0.487	0.286	0.429	0.53	1.12	0.956	0.979	0.424	0.365	0.977	1.03	1.01	1.04	0.722
A-427	0.721	0.717	0.678	0.554	0.553	0.831	0.904	0.855	0.838	0.798	1.05	1.01	0.958	0.715	0.669	0.895	0.881	0.738	0.809	0.406
